Results reported in the OPERA property sets (Mansouri et al. 2018).

logP | Compound
1.01 | O=S1C=Cc2ccccc21 (stereo not given)
4.55 | c1ccc2c(c1)ccc1ccsc12
4.5 | c1ccc2cc3sccc3cc2c1
4.41 | c1ccc2c(c1)ccc1sccc12
3.85 | Cc1cccc2ccsc12
4.95 | c1cc2ccc3cccc4sc(c1)c2c34
3.57 | Cc1cccc2sccc12
5.35 | c1ccc2c(c1)ccc1c3ccsc3ccc21
3.71 | Cc1cc2ccccc2s1

Compound | logP
c1ccc2c(c1)ccc1sc3ccccc3c12 | 5.19
